Experimental data: patent US9981972B2, “N-hydroxy bicyclic hydantoin carbamates as tools for identification of serine hydrolase targets” (ABIDE THERAPEUTICS, INC., priority 2014, dated 2018)
Like-named read-outs stand apart in the source and are kept apart here.

Columns and labels:
Type in all cases: biochemical
[1] = system: mouse LYPLA1/2 (quantified together); test: IC50 by gel-based competitive ABPP in vitro, mouse brain membrane proteome
Method: (§1) Assay Overview: The purpose of this assay was to determine IC50 values of powder samples of test compounds for enzyme of interest activity, and anti-targets in a complex proteomic lysate using a gel-based competitive ABPP assay. In this assay, a complex proteome was incubated with test compound followed by reaction with FP-Rh and SDS-PAGE analysis as described above.
(§2) Protocol Summary: Soluble HeLa cell proteome (50 μL reaction volume, 1 mg/mL in DPBS) or mouse brain membrane proteome (50 μL reaction volume, 1 mg/mL in DPBS) was treated with varying concentrations of test compound (1 μL of a 50× stock in DMSO) for 30 minutes at 37° C. FP-Rh (1 μL of 50× stock in DMSO) was added to a final concentration of 2 μM. The reaction was incubated for 30 minutes at 25° C., quenched with 16 μL 4×SDS-PAGE loading buffer (reducing), separated by SDS-PAGE and visualized by in-gel fluorescent scanning. The percentage activity remaining was determined by measuring the integrated optical density of the enzymes of interest, and anti-target bands relative to a DMSO-only (no compound) control. IC50 values were determined from dose-response curves from three replicates at each inhibitor concentration: 1, 10, 100, 1000, 10000 nM and 0.01, 0.1, 1, 10, 100, 1000, 10000, 50000, and 100000 nM.

[2] = target: T1, ABHD6 (Mus musculus, UniProt Q8R2Y0); test: Gel-based competitive ABPP in vitro, mouse brain membrane proteome
T1 construct: from tissue; host or cells: mouse brain, membrane fraction
T1 sequence (Q8R2Y0 1-336): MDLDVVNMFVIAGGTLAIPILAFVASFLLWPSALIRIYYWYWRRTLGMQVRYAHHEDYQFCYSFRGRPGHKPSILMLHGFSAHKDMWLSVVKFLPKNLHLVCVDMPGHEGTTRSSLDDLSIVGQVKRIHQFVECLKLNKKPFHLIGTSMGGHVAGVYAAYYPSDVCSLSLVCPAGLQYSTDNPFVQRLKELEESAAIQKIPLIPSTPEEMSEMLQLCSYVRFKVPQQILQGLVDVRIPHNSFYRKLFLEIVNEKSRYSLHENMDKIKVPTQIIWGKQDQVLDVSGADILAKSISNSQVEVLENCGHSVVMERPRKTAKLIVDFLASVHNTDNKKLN
Method: (§3) Assay Overview: The purpose of this assay was to determine whether test compounds can inhibit LYPLA1 and LYPLA2 in a complex proteomic lysate and to assess anti-target inhibition using a competitive activity-based proteomic profiling (ABPP) assay. In this assay, a complex proteome endogenously expressing LYPLA1/2 was incubated with test compound followed by reaction with a rhodamine-conjugated fluorophosphonate (FP-Rh) serine-hydrolase specific activity-based probe. The reaction products were separated by SDS-PAGE and visualized in-gel using a flatbed fluorescence scanner. The percentage activity remaining was determined by measuring the integrated optical density of the bands. […] Percent inhibition was calculated relative to a DMSO (no compound) control.
(§4) Protocol Summary: Mouse brain membrane proteome (50 μL reaction volume, 1 mg/mL in DPBS) was treated with 0.1-100 μM test compound (1 μL of a 50× stock in DMSO) for 30 minutes at 37° C. FP-Rh (1 μL of 50× stock in DMSO, Thermo #88318) was added to a final concentration of 2 μM. The reactions were incubated for 30 minutes at 25° C., quenched with 16 μL 4×SDS-PAGE loading buffer (reducing), separated by SDS-PAGE and visualized by in-gel fluorescent scanning. The percentage activity remaining was determined by measuring the integrated optical density of the bands relative to a DMSO-only (no compound) control. Assay Cutoff: Compounds with ≥50% inhibition of targets at 1 μM test compound concentration were considered active.
as §1, §2

[3] = target: T2, FAAH (Mus musculus, UniProt O08914); test: as above; conditions: for FAAH in vitro enzyme activity, % @ 10 μM: mouse brain (mem) proteome
T2 construct: from tissue; host or cells: mouse brain, membrane fraction
T2 sequence (O08914 1-579): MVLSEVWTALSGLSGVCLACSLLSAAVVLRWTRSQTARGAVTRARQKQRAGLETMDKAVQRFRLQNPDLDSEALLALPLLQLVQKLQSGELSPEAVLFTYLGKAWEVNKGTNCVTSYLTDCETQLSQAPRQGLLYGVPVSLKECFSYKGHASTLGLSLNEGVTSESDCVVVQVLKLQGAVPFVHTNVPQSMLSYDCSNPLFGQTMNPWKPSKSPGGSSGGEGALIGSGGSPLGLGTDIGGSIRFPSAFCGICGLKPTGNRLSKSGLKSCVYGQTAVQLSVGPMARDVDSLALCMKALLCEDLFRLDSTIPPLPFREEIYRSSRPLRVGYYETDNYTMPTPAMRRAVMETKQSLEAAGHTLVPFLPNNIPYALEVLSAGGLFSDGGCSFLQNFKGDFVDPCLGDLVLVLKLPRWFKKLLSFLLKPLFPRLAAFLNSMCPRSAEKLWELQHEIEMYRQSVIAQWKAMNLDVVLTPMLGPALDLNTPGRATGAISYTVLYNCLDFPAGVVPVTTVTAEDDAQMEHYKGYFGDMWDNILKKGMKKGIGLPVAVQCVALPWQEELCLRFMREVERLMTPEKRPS
Method: as §3, §4, §1, §2

[4] = mouse LYPLA1/2, in vitro, read-out: mLYPLA1/2 in vitro potency (IC50)

| ABHD6 in vitro enzyme activity, % @ 1 μM ([2]; mouse brain (mem) proteome) [% @] | FAAH in vitro enzyme activity, % @ 10 μM [3] [% @] | SMILES | other results |
| --- | --- | --- | --- |
| 100 | 50 | O=C(ON1C(=O)[C@@H]2CN(Cc3ccc(Br)cc3)CCN2C1=O)N1CCC(CCc2ccc(Cl)cc2)CC1 [Compound 40, (S)-7-(4-bromobenzyl)-1,3-dioxohexahydroimidazo[1,5-a]pyrazin-2(3H)-yl4-(4-chlorophenethyl)piperidine-1-carboxylate] | – |
| 100 | 100 | O=C(ON1C(=O)[C@@H]2CN(C(=O)N3CCOCC3)CCN2C1=O)N1CCN(CCc2ccc(Cl)cc2)CC1 [Compound 41, (S)-7-(morpholine-4-carbonyl)-1,3-dioxo-hexahydroimidazo[1,5-a]pyrazin-2(3H)-yl 4-(4-chlorophenethyl)piperazine-1-carboxylate] | – |
| 100 | 75 | C#Cc1ccc(CCC2CCN(C(=O)ON3C(=O)[C@@H]4CN(C(=O)N5CCOCC5)CCN4C3=O)CC2)cc1 [Compound 48, (S)-7-(morpholine-4-carbonyl)-1,3-dioxo-hexahydroimidazo[1,5-a]pyrazin-2(3H)-yl 4-(4-ethynylphenethyl)piperidine-1-carboxylate] | – |
| 100 | 50 | C#Cc1ccc(CCC2CCN(C(=O)ON3C(=O)[C@H]4CN(C(=O)N5CCOCC5)CCN4C3=O)CC2)cc1 [Compound 49, (R)-7-(morpholine-4-carbonyl)-1,3-dioxo-hexahydroimidazo[1,5-a]pyrazin-2(3H)-yl 4-(4-ethynylphenethyl)piperidine-1-carboxylate] | – |
| 100 | 0 | O=C(ON1C(=O)[C@@H]2CN(C(=O)N3CCOCC3)CCN2C1=O)N1CCC(CCc2ccc(Cl)cc2)CC1 [Compound 50, (S)-7-(morpholine-4-carbonyl)-1,3-dioxohexahydroimidazo[1,5-a]pyrazin-2(3H)-yl 4-(4-chloro-phenethyl)piperidine-1-carboxylate] | IC50 [1, 4]: 117 nM; IC50 ([2]; mouse ABHD6, in vitro, read-out: mABHD6 in vitro potency (IC50)): 2.2 nM |
| 100 | 50 | C#Cc1ccc(CCC2CCN(C(=O)ON3C(=O)C4CN(C(=O)N5CCOCC5)CCN4C3=O)CC2)cc1 (centres unmarked) [Compound 53, 7-(morpholine-4-carbonyl)-1,3-dioxo-hexahydroimidazo[1,5-a]pyrazin-2(3H)-yl 4-(4-ethynylphenethyl)piperidine-1-carboxylate] | – |

The remaining lines, values behind:

| SMILES | ABHD6 in vitro enzyme activity, % @ 1 μM ([2]; mouse brain (mem) proteome) [% @] | FAAH in vitro enzyme activity, % @ 10 μM [3] [% @] | other results |
| --- | --- | --- | --- |
| O=C(ON1C(=O)C2CN(C(=O)N3CCOCC3)CCN2C1=O)N1CCC(CCc2ccc(Cl)cc2)CC1 (centres unmarked) [Compound 1, 7-(morpholine-4-carbonyl)-1,3-dioxohexahydroimidazo[1,5-a]pyrazin-2(3H)-yl 4-(4-chloro-phenethyl)piperidine-1-carboxylate] | – | – | IC50 ([1]; LYPLA1/2 quantified together, mouse brain membrane proteome, read-out: mouse LYPLA1/2 collective IC50 in vitro): 154 nM; potency and selectivity for LYPLA1/2, concentration-dependent profiling ([1]; mouse brain membrane SHs, FIG. 7B): good potency and selectivity; IC50 ([2]; anti-target, mouse brain membrane proteome, read-out: ABHD6 IC50): 3.15 nM; selectivity for LYPLA1/2 over FAAH ([3]; LYPLA versus FAAH): ~13 fold; IC50 ([3]; anti-target, mouse brain membrane proteome): 3.15 µM |
| O=C(ON1C(=O)C2CN(Cc3ccc(Oc4ccccc4)cc3)CCN2C1=O)N1CCC(c2ccccc2)CC1 (centres unmarked) [Compound 38, 1,3-dioxo-7-(4-phenoxybenzyl)hexahydroimidazo[1,5-a]pyrazin-2(3H)-yl 4-phenylpiperidine-1-carboxylate] | – | – | ABHD6 in vitro enzyme activity, % @ 20 μM ([2]; 20 μM, mouse brain (mem) proteome): 100% @ |
| COc1ccc(N2CCN(C(=O)ON3C(=O)[C@@H]4CN(CC5CCN(Cc6ccccc6)CC5)CCN4C3=O)CC2)cc1 [Compound 42, (S)-7-((1-benzylpiperidin-4-yl)methyl)-1,3-dioxo-hexahydroimidazo[1,5-a]pyrazin-2(3H)-yl 4-(4-methoxyphenyl)piperazine-1-carboxylate] | 100 | 0 | IC50 [1, 4]: 29300 nM |
| COc1ccc(N2CCN(C(=O)ON3C(=O)[C@H]4CN(CC5CCN(Cc6ccccc6)CC5)CCN4C3=O)CC2)cc1 [Compound 43, (R)-7-((1-benzylpiperidin-4-yl)methyl)-1,3-dioxo-hexahydroimidazo[1,5-a]pyrazin-2(3H)-yl 4-(4-methoxyphenyl)piperazine-1-carboxylate] | 100 | 0 | – |
| C#CCOc1ccc(N2CCN(C(=O)ON3C(=O)[C@@H]4CN(Cc5ccc(Oc6ccccc6)cc5)CCN4C3=O)CC2)cc1 [Compound 44, (S)-1,3-dioxo-7-(4-phenoxybenzyl)-hexahydroimidazo[1,5-a]pyrazin-2(3H)-yl 4-(4-(prop-2-ynyloxy)phenyl)piperazine-1-carboxylate] | 100 | 0 | – |
| C#CCOc1ccc(N2CCN(C(=O)ON3C(=O)[C@H]4CN(Cc5ccc(Oc6ccccc6)cc5)CCN4C3=O)CC2)cc1 [Compound 45, (R)-1,3-dioxo-7-(4-phenoxybenzyl)-hexahydroimidazo[1,5-a]pyrazin-2(3H)-yl 4-(4-(prop-2-ynyloxy)phenyl)piperazine-1-carboxylate] | 100 | 0 | – |
| C#CCOc1ccc(N2CCN(C(=O)ON3C(=O)[C@@H]4CN(CC5CCN(Cc6ccccc6)CC5)CCN4C3=O)CC2)cc1 [Compound 46, (S)-7-((1-benzylpiperidin-4-yl)methyl)-1,3-dioxo-hexahydroimidazo[1,5-a]pyrazin-2(3H)-yl 4-(4-(prop-2-ynyloxy)phenyl)piperazine-1-carboxylate] | 100 | 0 | – |
| C#CCOc1ccc(N2CCN(C(=O)ON3C(=O)[C@H]4CN(CC5CCN(Cc6ccccc6)CC5)CCN4C3=O)CC2)cc1 [Compound 47, (R)-7-((1-benzylpiperidin-4-yl)methyl)-1,3-dioxo-hexahydroimidazo[1,5-a]pyrazin-2(3H)-yl 4-(4-(prop-2-ynyloxy)phenyl)piperazine-1-carboxylate] | 100 | 0 | – |
| COc1ccc(N2CCN(C(=O)ON3C(=O)C4CN(CC5CCN(Cc6ccccc6)CC5)CCN4C3=O)CC2)cc1 (centres unmarked) [Compound 52, 7-((1-benzylpiperidin-4-yl)methyl)-1,3-dioxo-hexahydroimidazo[1,5-a]pyrazin-2(3H)-yl 4-(4-methoxyphenyl)piperazine-1-carboxylate] | 100 | 0 | – |
